Inhibition and melting point data for 23 compounds are collected here from patent US8642770B2, “Indole derivative” (Takeda Pharmaceutical Company Limited, priority 2010, dated 2014).

The term inhibition denotes the drop in the measured response relative to a control, in per cent. As a reminder, the melting point is the temperature, or range, at which the solid turns liquid.

Data set [1] concerns the target T1, human MCHR1 (Homo sapiens, UniProt Q99705).
T1 construct: expressed in transfected cells; host or cells: CHO cell clone 57 (membrane fraction)
Nature of the data set: Human MCH receptor 1 (MCHR1) competitive binding assay, [125I]-MCH(4-19), CHO cell membrane fraction. The note with it: test compound 0.1 μM, human MCHR1-expressing CHO cell membrane, 25° C., 1 hr, read-out: Binding inhibition rate (0.1 μM). As to the method: Determination of Human MCH Receptor 1 (MCHR1) Competitive Inhibitory Activity of Test Compound Using Binding Assay
Using human MCHR1(=SLC-1 receptor)-expressing CHO cell clone 57 and rat MCHR1-expressing CHO cell clone 44 described in WO01/82925, MCHR1-expressing CHO cellular membrane fractions were prepared by the following method. In phosphate buffered saline (pH 7.4) supplemented with 5 mM EDTA (ethylenediaminetetraacetic acid) were respectively suspended human and rat MCHR1-expressing CHO cells (1×10^8 cells) and centrifuged. Homogenate buffer (10 mL, 10 mM NaHCO3, 5 mM EDTA, pH 7.5, 0.5 mM PMSF (phenylmethylsulfonyl fluoride), 20 mg/L leupeptin, 4 mg/L E-64, 1 mg/L pepstatin A) was added to the pellets of the cells and, using Polytron Homogenizer, the mixture was homogenated. The supernatant obtained after centrifugation at 400×g for 10 min was further centrifuged at 100,000×g for 1 hr to give precipitate of the membrane fraction. The precipitate were suspended in 2 mL of assay buffer [20 mM Tris-HCl (pH 7.5), 5 mM EDTA, 0.5 mM PMSF, 20 mg/L leupeptin, 4 mg/L E-64, 1 mg/L pepstatin A]. The membrane fractions were suspended in assay buffer to a protein concentration of 2 mg/mL, and after dispensing, preserved at −80° C. and used upon thawing each time when in use.
The MCHR1 ligand binding inhibitory activity of the test compound was determined as follows. An MCHR1-expressing CHO cellular membrane fraction (175 μL) diluted with an assay buffer was dispensed to a 96 well polypropylene plate (3363, Corning). DMSO solution (2 μL), 100 μm cold MCH(1-19) diluted with DMSO solution (2 μL), or a test compound solution diluted with DMSO solution to various concentrations (2 μL) was added, and lastly, [^125I]-MCH(4-19) diluted with assay buffer (25 μL) was added to each well. The reaction mixture was reacted at 25° C. for 1 hr with stirring, and the reaction mixture was filtered by suction using a glass filter plate (GF/C, PerkinElmer). The filter was washed 3 times with a wash solution (300 μL, 50 mM Tris-HCl buffer, pH 7.5). The glass filter plate was dried, a liquid scintillator was added at 25 μL/well, and the residual radioactivity was measured by TopCount (PerkinElmer). The binding inhibition rate of the test compound was calculated by the following formula. Binding inhibition (%)=(radioactivity upon addition of test compound and hot MCH−radioactivity upon addition of cold MCH and hot MCH solution)/(radioactivity upon addition of DMSO solution and hot MCH−radioactivity upon addition of cold MCH and hot MCH solution)×100

T1 sequence (Q99705 whole entry): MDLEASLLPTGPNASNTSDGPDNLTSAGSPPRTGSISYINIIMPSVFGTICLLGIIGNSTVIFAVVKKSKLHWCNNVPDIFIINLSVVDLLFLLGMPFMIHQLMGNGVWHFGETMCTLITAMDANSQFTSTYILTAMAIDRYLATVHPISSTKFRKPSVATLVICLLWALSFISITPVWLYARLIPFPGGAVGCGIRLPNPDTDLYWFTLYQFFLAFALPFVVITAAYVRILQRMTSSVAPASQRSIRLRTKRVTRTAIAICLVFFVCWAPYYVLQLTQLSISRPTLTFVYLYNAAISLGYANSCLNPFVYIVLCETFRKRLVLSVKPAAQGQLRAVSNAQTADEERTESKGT

With `Cn1c(CN[C@H]2CC[C@](C)(O)CC2)cc2cc(NC(=O)c3ccc(OCC4CC4)cc3)ccc21` [Example 12, 4-(cyclopropylmethoxy)-N-(2-{[(trans-4-hydroxy-4-methylcyclohexyl)amino]methyl}-1-methyl-1H-indol-5-yl)benzamide], the inhibition at 0.1 µM in data set [1] amounted to 98%. In turn, `Cc1c(NC(=O)c2ccc(OC[C@@H]3CCCO3)cc2)ccc2cc(CN3CCC(C)(O)CC3)n(C)c12` [Example 87, N-{2-[(4-hydroxy-4-methylpiperidin-1-yl)methyl]-1,7-dimethyl-1H-indol-6-yl}-4-[(2S)-tetrahydrofuran-2-ylmethoxy]benzamide] displayed a melting point of 140 to 141 °C.

On to `Cc1c(NC(=O)c2ccc(OC[C@@H]3CCCO3)cc2F)ccc2cc(CNCC(C)(C)O)n(C)c12` [Example 89, 2-fluoro-N-(2-{[(2-hydroxy-2-methylpropyl)amino]methyl}-1,7-dimethyl-1H-indol-6-yl)-4-[(2S)-tetrahydrofuran-2-ylmethoxy]benzamide], for which the melting point was in the range of 132 to 133 °C. With `Cc1c(NC(=O)c2ccc(C#CC3(O)CC3)cc2)ccc2cc(CNCC(C)C)n(C)c12` [Example 90, N-(1,7-dimethyl-2-{[(2-methylpropyl)amino]methyl}-1H-indol-6-yl)-4-[(1-hydroxycyclopropyl)ethynyl]benzamide], the melting point was determined as 186 °C. On the same count and under the same terms, then `Cc1c(NC(=O)c2ccc(C#CC3(O)CC3)cc2)ccc2cc(CNCC(C)(C)C)n(C)c12` [Example 91, N-(2-{[(2,2-dimethylpropyl)amino]methyl}-1,7-dimethyl-1H-indol-6-yl)-4-[(1-hydroxycyclopropyl)ethynyl]benzamide], with 182 to 183 °C; and `Cc1c(NC(=O)c2ccc(C#CC3(O)CCC3)cc2)ccc2cc(CNCC(C)C)n(C)c12` [Example 92, 4-[(1-hydroxycyclobutyl)ethynyl]-N-(2-{[(2-methylpropyl)amino]methyl}-1,7-dimethyl-1H-indol-6-yl)benzamide], with 222 to 223 °C. Same read-out and setting: under `Cc1c(NC(=O)c2ccc(C#CC3(O)CCC3)cc2)ccc2cc(CNCC(C)(C)C)n(C)c12` [Example 93, N-(2-{[(2,2-dimethylpropyl)amino]methyl}-1,7-dimethyl-1H-indol-6-yl)-4-[(1-hydroxycyclobutyl)ethynyl]benzamide] stands 232 to 233 °C; under `Cc1c(NC(=O)c2ccc(C#CC3(O)CCC3)cc2)ccc2cc(CNCC3CCOCC3)n(C)c12` [Example 94, N-(1,7-dimethyl-2-{[(tetrahydro-2H-pyran-4-ylmethyl)amino]methyl}-1H-indol-6-yl)-4-[(1-hydroxycyclobutyl)ethynyl]benzamide], 202 to 204 °C; under `Cc1c(CNCC(C)C)[nH]c2c(C)c(NC(=O)c3ccc(OC[C@@H]4CCCO4)cc3)ccc12` [Example 96, N-(2-{[(2-methylpropyl)amino]methyl}-3,7-dimethyl-1H-indol-6-yl)-4-[(2S)-tetrahydrofuran-2-ylmethoxy]benzamide], 118 to 119 °C. On the same count and under the same terms, under `Cc1c(CNCC2CCOCC2)[nH]c2c(C)c(NC(=O)c3ccc(OC[C@@H]4CCCO4)cc3)ccc12` [Example 97, N-(3,7-dimethyl-2-{[(tetrahydro-2H-pyran-4-ylmethyl)amino]methyl}-1H-indol-6-yl)-4-[(2S)-tetrahydrofuran-2-ylmethoxy]benzamide] stands 184 to 185 °C; under `Cc1c(CNCC(C)(C)C)[nH]c2c(C)c(NC(=O)c3ccc(OC[C@@H]4CCCO4)cc3)ccc12` [Example 98, N-(2-{[(2,2-dimethylpropyl)amino]methyl}-3,7-dimethyl-1H-indol-6-yl)-4-[(2S)-tetrahydrofuran-2-ylmethoxy]benzamide], 178 to 179 °C; under `Cc1c(CN[C@H]2CC[C@](C)(O)CC2)[nH]c2c(C)c(NC(=O)c3ccc(OC[C@@H]4CCCO4)cc3)ccc12` [Example 99, N-(2-{[(trans-4-hydroxy-4-methylcyclohexyl)amino]methyl}-3,7-dimethyl-1H-indol-6-yl)-4-[(2S)-tetrahydrofuran-2-ylmethoxy]benzamide], 134 to 135 °C.

Compound `Cc1c(CNC2CCCC2)[nH]c2c(C)c(NC(=O)c3ccc(OC[C@@H]4CCCO4)cc3)ccc12` [Example 100, N-{2-[(cyclopentylamino)methyl]-3,7-dimethyl-1H-indol-6-yl}-4-[(2S)-tetrahydrofuran-2-ylmethoxy]benzamide] came in with a melting point of 107 to 109 °C. Still for that read-out and setting: under `Cc1c(CNCC(C)(C)O)[nH]c2c(C)c(NC(=O)c3ccc(OC[C@@H]4CCCO4)cc3F)ccc12` [Example 101, 2-fluoro-N-(2-{[(2-hydroxy-2-methylpropyl)amino]methyl}-3,7-dimethyl-1H-indol-6-yl)-4-[(2S)-tetrahydrofuran-2-ylmethoxy]benzamide] stands 151 to 152 °C. On the same count and under the same terms, under `Cc1c(CN[C@H]2CC[C@](C)(O)CC2)[nH]c2c(C)c(NC(=O)c3ccc(OC[C@@H]4CCCO4)cc3F)ccc12` [Example 102, 2-fluoro-N-(2-{[(trans-4-hydroxy-4-methylcyclohexyl)amino]methyl}-3,7-dimethyl-1H-indol-6-yl)-4-[(2S)-tetrahydrofuran-2-ylmethoxy]benzamide] stands 177 to 178 °C; under `Cc1c(CNCC(C)C)[nH]c2c(F)c(NC(=O)c3ccc(OC[C@@H]4CCCO4)cc3)ccc12` [Example 104, N-(7-fluoro-2-{[(2-methylpropyl)amino]methyl}-3-methyl-1H-indol-6-yl)-4-[(2S)-tetrahydrofuran-2-ylmethoxy]benzamide], 134 to 135 °C; under `Cc1c(CNCC(C)C)n(C)c2c(C)c(NC(=O)c3ccc(OC[C@@H]4CCCO4)cc3)ccc12` [Example 106, N-(2-{[(2-methylpropyl)amino]methyl}-1,3,7-trimethyl-1H-indol-6-yl)-4-[(2S)-tetrahydrofuran-2-ylmethoxy]benzamide], 171 to 172 °C. The compound `Cc1c(CNCC2CCOCC2)n(C)c2c(C)c(NC(=O)c3ccc(OC[C@@H]4CCCO4)cc3)ccc12` [Example 107, 4-[(2S)-tetrahydrofuran-2-ylmethoxy]-N-(1,3,7-trimethyl-2-{[(tetrahydro-2H-pyran-4-ylmethyl)amino]methyl}-1H-indol-6-yl)benzamide] gave a melting point of 173 to 174 °C. On the same count and under the same terms, then `Cc1c(CNCC(C)(C)O)n(C)c2c(C)c(NC(=O)c3ccc(OC[C@@H]4CCCO4)cc3)ccc12` [Example 108, N-(2-{[(2-hydroxy-2-methylpropyl)amino]methyl}-1,3,7-trimethyl-1H-indol-6-yl)-4-[(2S)-tetrahydrofuran-2-ylmethoxy]benzamide], with 186 to 188 °C; and `Cc1c(CN[C@H]2CC[C@](C)(O)CC2)n(C)c2c(C)c(NC(=O)c3ccc(OC[C@@H]4CCCO4)cc3)ccc12` [Example 109, N-(2-{[(trans-4-hydroxy-4-methylcyclohexyl)amino]methyl}-1,3,7-trimethyl-1H-indol-6-yl)-4-[(2S)-tetrahydrofuran-2-ylmethoxy]benzamide], with 183 to 184 °C.

Consider `Cc1c(CNCC(C)(C)O)n(C)c2c(C)c(NC(=O)c3ccc(OC[C@@H]4CCCO4)cc3F)ccc12` [Example 111, 2-fluoro-N-(2-{[(2-hydroxy-2-methylpropyl)amino]methyl}-1,3,7-trimethyl-1H-indol-6-yl)-4-[(2S)-tetrahydrofuran-2-ylmethoxy]benzamide], for which the melting point is 131 to 132 °C. `Cc1c(CN[C@H]2CC[C@](C)(O)CC2)n(C)c2c(F)c(NC(=O)c3ccc(OC[C@@H]4CCCO4)cc3)ccc12` [Example 112, N-(7-fluoro-2-{[(trans-4-hydroxy-4-methylcyclohexyl)amino]methyl}-1,3-dimethyl-1H-indol-6-yl)-4-[(2S)-tetrahydrofuran-2-ylmethoxy]benzamide]: the melting point lay within 122 to 124 °C.

`Cc1c(CNCC2CCOCC2)n(C)c2c(F)c(NC(=O)c3ccc(OC[C@@H]4CCCO4)cc3)ccc12` [Example 113, N-(7-fluoro-1,3-dimethyl-2-{[(tetrahydro-2H-pyran-4-ylmethyl)amino]methyl}-1H-indol-6-yl)-4-[(2S)-tetrahydrofuran-2-ylmethoxy]benzamide] showed a melting point of 132 to 134 °C.
